Laboratory results reported in patent US12631626B2, “Continuous real-time monitoring of biomolecules in live subjects” (priority 2020, dated 2026).

Assay: Glucose measurement (RTCM and glucose meter) in an awake diabetic rat after insulin injection
Type: in vivo
Conditions: conscious diabetic rat, after 40 minutes, same amount of insulin as in anesthetized rats
Method: FIGS. 6A-6B show glucose and insulin measurements in an awake diabetic rat. An awake diabetic rat was injected with human insulin, with blood samples collected at t=0, 5, 20, and 40 min after injection. Glucose levels were measured using RTCM and glucose meter (FIG. 6A), and insulin levels were measured using RTCM and ELISA (FIG. 6B).
Male Sprague Dawley rats (Charles River) were used for experiments. Animal studies were performed in accordance with the guidelines for the care and use of laboratory animals; all protocols were approved by the Stanford Institutional Animal Care and Use Committee. The protocol used for STZ induction adapted from the protocol by Kenneth K. Wu and Youming Huan (Wu, K. K., & Huan, Y. Streptozotocin-induced diabetic models in mice and rats. Curr. Protoc. Pharmacol. 5, 1-14 (2008)). Briefly, male Sprague Dawley rats 160-230 g (8-10 weeks) were weighed and fasted 6-8 hours prior to treatment with STZ. STZ was diluted to 10 mg/mL in the sodium citrate buffer immediately before injection. STZ solution was injected intraperitoneally at 65 mg/kg into each rat. Rats were provided with water containing 10% sucrose for 24 hours after injection with STZ. Rat blood glucose levels were tested for hyperglycemia daily after the STZ treatment via tail vein blood collection using a handheld Bayer Contour Next glucose monitor (Bayer). […]

With “insulin: human insulin injected into an awake diabetic rat, same amount as in anesthetized rats; probably Humulin R” the “Decrease in glucose level” value was 7 mM.
